Measurements: patent US9260384B2, “Urea compounds and use thereof for inhibiting apoptosis” (Chinese PLA General Hospital, priority 2010, dated 2016)

Tests used:
primary cardiomyocytes = experiment: Measurement of cell inhibition rate (MTT) on normal primary cardiomyocytes; format: cell-based, neonatal Wistar rats
Description: The isolation and culture of cardiomyocytes were performed by referring to the differential adhesion method (Kreider, A. Messing, H. Doan, S. U. Kim, R. P. Lisak and D. E. Pleasure, Enrichment of Schwann cell cultures from neonatal rat sciatic nerve by differential adhesion, Brain Res 2 (1981), pp. 433-444). […]
(§1) The isolated primary culture of cardiomyocytes was inoculated in an amount of 10^4 cells per well to a 96-well plate, and the volume of each well was 100 ul (marginal wells were filled with sterile PBS). […] The optical density (OD) value of each well was measured at wavelength of 550 nm by enzyme-linked immunoassay instrument, and each well was repeatedly measured for 5 times and the results were recorded.

[1] = system: TG-induced cardiomyocytes apoptosis; experiment: Protection against TG-induced cardiomyocyte apoptosis (MTT); format: cell-based, Wistar sucking mice
Description: The isolation and culture of cardiomyocytes were performed by referring to the differential adhesion method (Kreider, A. Messing, H. Doan, S. U. Kim, R. P. Lisak and D. E. Pleasure, Enrichment of Schwann cell cultures from neonatal rat sciatic nerve by differential adhesion, Brain Res 2 (1981), pp. 433-444). Wistar sucking mice newborn within 24 h were used, sterilized at skin of ventrum with iodine tincture and ethanol, subjected to thoracotomy using scissors at subxiphoid median line with a deviation to left, heart was taken out after slant thoracotomy and placed in PBS precooled with ice; the heart was softly blown and beaten with 0.01M PBS to remove blood cells and other tissues, then cut into pieces with 0.5 mm^3 size, washed with 0.01 M PBS repeatedly for 2-3 times; the pieces were placed in conical flask, added with 4 ml of 0.125% pancretin, 1 ml of 0.1% collagenase II (final concentrations separately being 0.1% and 0.02%), shaken in 37° C. water bath for 10 min, the supernatant was discarded; then 4 ml of 0.125% pancretin and 1 ml of 0.1% collagenase II again, shaken in 37° C. water bath for digestion for 10 min, the supernatant was sucked and transferred to a centrifuge tube, and the supernatant was added with DMEM containing 10% FBS to terminate digestion; the step of shaking and digestion in water bath was repeated for 3-4 times, until the tissue pieces were completely digested; the collected cell suspension was centrifuged under 1000 rpm for 10 min, the supernatant was removed, then a culture medium was added for resuspension; the resuspended cells were inoculated in a cell culture flask, placed in CO2 incubator at 37° C. for incubation for 1.5 h, then the culture medium was sucked out, countered under microscope, then DMEM culture medium containing 10% FBS was used to adjust cell density, inoculated in an amount of 1×10^4 to a 96-well plate, placed in 5% CO2 incubator at 37° C. for 24 h, then half medium was replaced, a culture medium containing 0.1% Brdu was supplementally added; then the medium was replaced once per 48 h, and primary cardiomyocytes were obtained after 4 days of cultivation.
as §1, with “recorded. […]” for “recorded.”

O=C(/C=C/c1ccccc1)NC(NC(=O)Nc1cccc2cccnc12)C(Cl)(Cl)Cl (stereo not shown) [Example 1, (2E)-3-phenyl-N-[1-(8-quinolylamino)formylamino-2,2,2-trichloroethyl]-2-acrylamide]
inhibition at 30 µM (primary cardiomyocytes; Cardiomyocyte, 30 μM compound, 48 h, MTT, cell survival rate = 1 − cell inhibition rate): 9.57 ± 1.62% | inhibition at 300 µM (primary cardiomyocytes; Cardiomyocyte, 300 μM compound, 48 h, MTT, cell survival rate = 1 − cell inhibition rate): 7.78 ± 3.42% | effect on survival rate of normal cardiomyocytes (primary cardiomyocytes; concentration within 300 μM): no effect

O=C(/C=C/c1ccccc1)NC(NC(=O)Nc1cccc2cccnc12)C(Cl)(Cl)Cl (stereo not shown) [Example 5, (2E)-3-phenyl-N-[1-(8-quinolylamino)formylamino-2,2,2-trichloroethyl]-2-acrylamide]
Cardiomyocyte survival rate (%) ([1]; TG 0.4 uM + compound 0.3 μM, pretreatment 30 min before TG): 79.3 ± 4.6% | Cardiomyocyte survival rate (%) ([1]; TG 0.4 uM + compound 1 μM, pretreatment 30 min before TG): 83.8 ± 8.3% | Cardiomyocyte survival rate (%) ([1]; TG 0.4 uM + compound 3 μM, pretreatment 30 min before TG): 84.2 ± 1.1%

C/C=C(/C)C(=O)O[C@H]1C(C)=C2[C@H]([C@@H]1OC(=O)CCCCCCC)[C@@](C)(OC(C)=O)C[C@H](OC(=O)CCC)[C@@]1(O)[C@H]2OC(=O)[C@@]1(C)O [TG, thapsigargin, reference compound]
Cardiomyocyte survival rate (%) ([1]; TG alone 0.4 uM (apoptosis inducer)): 59 ± 1.1%
